{"source": "patent US20250325533A1", "about": "“TRYPTAMINE COMPOSITIONS FOR ENHANCING NEURITE OUTGROWTH” (TURTLE BEAR HOLDINGS, LLC, priority 2016, published 2025)", "key": {"[1]": {"tested_on": "inflammation in the lungs", "settings": "in vivo; cited from earlier work"}, "[2]": {"tested_on": "Rat Induced Pluripotent Stem Cell (iPSC) neurons / cortical neurons from rat embryo", "assay": "Neurite outgrowth and length in cultured neurons, beta III tubulin immunostaining, High-Content Screening (Neurofit)", "assay_type": "cell-based", "settings": "day 10", "description": "Experiments were conducted to evaluate the neurotrophic effects of several purified tryptamines, H. erinaceum extracts, and the tryptamines combined with selected extracts of H. erinaceum. The tryptamines, baeocystin, norbaeocystin, and norpsilocin, were evaluated at final concentrations of 0.3 μg/mL, 1 μg/mL, 3 μg/mL, and 10 μg/mL. The experiments analyzed the H. erinaceum growth medium (rice or rice and oat hull fiber), the days of cultivation, the extract solvent (water, ethanol, or ethyl acetate), and the final concentration of the extract (31.3 μg/mL, 62.5 μg/mL, 125 μg/mL or 250 μg/mL). Finally, combinations of the three tryptamines and representative H. erinaceum extracts were combined and evaluated.\nExperiments were conducted by Neurofit Contract Research Organization in Illkirch-Graffenstaden, France.\nThe following protocol was performed for each independent culture. Six culture experiments were performed for each condition.\nResults are expressed as mean (±Standard Deviation)."}, "[3]": {"tested_on": "PC12 cells (conditioned media from 1321N1 human astrocytoma cells)", "assay": "Neurite outgrowth of PC12 cells treated with conditioned media from 1321N1 cells", "assay_type": "cell-based, rat", "settings": "conditioned media from treated 1321N1 cells; n=3", "excerpt": "1321N1 human brain astrocytoma cells are known to excrete neurologically beneficial compounds when stimulated with neurotrophic compounds and fungal extracts including lion's mane (Mori et al., Biological and Pharmaceutical Bulletin, 9: 1727-1732 (2008)). While some fungi have well established mechanisms by which they benefit neurological health, little is known about the role of psilocybin analogs specifically. Generally following the protocol of Mori et al., 2008, 1321N1 human astrocytoma cells were treated with psilocybin analogs, and conditioned media was collected and applied to differentiated rat pheochromocytoma PC12 cells to determine the resulting impact on neurite outgrowth."}, "[4]": {"tested_on": "hallucinogenic effects in humans", "settings": "human, cited from earlier work"}, "[5]": {"tested_on": "nerve growth factor (NGF) protein", "assay": "ELISA of NGF protein in 1321N1 cells", "assay_type": "cell-based", "settings": "human 1321N1 cells; vs vehicle control; n=3; p<0.05", "excerpt": "Accordingly, preliminary research has started to reveal the mechanisms by which psilocybin analogs may confer neurotrophic benefits that facilitate neurite outgrowth.\n(§1) See Ly et al., “Psychedelics Promote Structural and Functional Neural Plasticity,” Cell Rep."}, "[6]": {"tested_on": "anti-inflammatory cytokine IL-10", "assay": "ELISA of IL-10 in 1321N1 cells", "assay_type": "cell-based", "settings": "human 1321N1 brain cells", "excerpt": "as §1"}}, "note": "“Also recorded” adds a separate entry of the source."}
{"smiles": "COc1cc(C[C@@H](C)N)c(OC)cc1I", "note": "[(R)-2,5-dimethoxy-4-iodoamphetamine]", "values": [{"measurement": "inflammation in the lungs", "setting": "[1]", "value": "prevent and reverse inflammation"}]}
{"smiles": "CNCCc1c[nH]c2cccc(OP(=O)(O)O)c12", "note": "[baeocystin, 4-phosphoryloxy-N-methyltryptamine]", "values": [{"measurement": "Neurite length per neuron, % of control, Avg.", "setting": "[2]; tryptamine 0.3 μg/mL", "value": 119.24, "unit": "%"}, {"measurement": "Neurites per neuron, % of control, Avg.", "setting": "[2]; tryptamine 0.3 μg/mL", "value": 94.46, "unit": "%"}, {"measurement": "Neurite length per neuron, % of control, Avg.", "setting": "[2]; tryptamine 1 μg/mL", "value": 112.34, "unit": "%"}, {"measurement": "Neurites per neuron, % of control, Avg.", "setting": "[2]; tryptamine 1 μg/mL", "value": 93.66, "unit": "%"}, {"measurement": "Neurite length per neuron, % of control, Avg.", "setting": "[2]; tryptamine 3 μg/mL", "value": 118.42, "unit": "%"}, {"measurement": "Neurites per neuron, % of control, Avg.", "setting": "[2]; tryptamine 3 μg/mL", "value": 97.18, "unit": "%"}, {"measurement": "Neurite length per neuron, % of control, Avg.", "setting": "[2]; tryptamine 10 μg/mL", "value": 109.61, "unit": "%"}, {"measurement": "Neurites per neuron, % of control, Avg.", "setting": "[2]; tryptamine 10 μg/mL", "value": 96.87, "unit": "%"}, {"measurement": "neurite outgrowth induced by conditioned media", "setting": "[3]", "value": "induce neurite outgrowth"}, {"measurement": "hallucinogenic effect", "setting": "[4]; 4 mg consumed, anecdotal (Gartz 1991)", "value": "gentle hallucinogenic experience"}, {"measurement": "hallucinogenic effects", "setting": "[4]; oral consumption of 10 mg and 20 mg", "value": "did not produce any hallucinogenic effects"}]}
{"smiles": "NCCc1c[nH]c2cccc(OP(=O)(O)O)c12", "note": "[norbaeocystin, 4-phosphoryloxy-tryptamine]", "values": [{"measurement": "neurite outgrowth induced by conditioned media", "setting": "[3]", "value": "induce neurite outgrowth"}, {"measurement": "expression of NGF protein", "setting": "[5]", "value": "increased expression of NGF protein; also recorded: induces the expression; also recorded: induction of NGF protein"}]}
{"smiles": "CNCCc1c[nH]c2cccc(O)c12", "note": "[norpsilocin, 4-hydroxy-N-methyl-tryptamine]", "values": [{"measurement": "neurite outgrowth compared with vehicle control and other treatments (in words)", "setting": "[2]; at the concentrations tested", "value": "did not perform better than vehicle control"}, {"measurement": "Neurite length per neuron, % of control, Avg.", "setting": "[2]; tryptamine 0.3 μg/mL", "value": 107.70, "unit": "%"}, {"measurement": "Neurites per neuron, % of control, Avg.", "setting": "[2]; tryptamine 0.3 μg/mL", "value": 83.77, "unit": "%"}, {"measurement": "Neurite length per neuron, % of control, Avg.", "setting": "[2]; tryptamine 1 μg/mL", "value": 101.13, "unit": "%"}, {"measurement": "Neurites per neuron, % of control, Avg.", "setting": "[2]; tryptamine 1 μg/mL", "value": 87.18, "unit": "%"}, {"measurement": "Neurite length per neuron, % of control, Avg.", "setting": "[2]; tryptamine 3 μg/mL", "value": 73.80, "unit": "%"}, {"measurement": "Neurites per neuron, % of control, Avg.", "setting": "[2]; tryptamine 3 μg/mL", "value": 79.36, "unit": "%"}, {"measurement": "Neurite length per neuron, % of control, Avg.", "setting": "[2]; tryptamine 10 μg/mL", "value": 7.65, "unit": "%"}, {"measurement": "Neurites per neuron, % of control, Avg.", "setting": "[2]; tryptamine 10 μg/mL", "value": 27.71, "unit": "%"}, {"measurement": "neurite outgrowth induced by conditioned media", "setting": "[3]", "value": "induce neurite outgrowth"}, {"measurement": "expression of IL-10", "setting": "[6]", "value": "induces the expression"}]}
